Reference: publication PMC8019628, “Acetylcholinesterase Inhibitory and Antioxidant Activity of the Compounds Isolated from Vanda roxburghii” (Advances in Pharmacological and Pharmaceutical Sciences, 2021)
In brackets after ≈: the same amount, converted by molar mass. Where two headings read alike, the source gives them in different places.

How the values were obtained:
[1] = Total antioxidant capacity (reduction of Mo (VI) to Mo (V)); conditions: 80 μg/ml, 695 nm, mean ± SD (n = 3)
Experimental: The antioxidant capacity of the compounds was assessed by the method as described earlier. The compound was added to a mixture of sulphuric acid (0.6 M), sodium phosphate (28 mM), and ammonium molybdate (4 mM) and heated in a water bath at 95°C for 90 min. After cooling to room temperature, the absorbance of the mixture was recorded at 695 nm against blank. A standard antioxidant catechin was used for comparison.

[2] = Reducing power assay (Fe+3-ferricyanide reduction)
Experimental: The reducing power of the compounds was determined by the method of Oyaizu. The compound (1 ml) was added to a mixture of 0.2 M potassium buffer (2.5 ml) and 1% potassium ferricyanide (2.5 ml) and incubated at 50°C for 20 minutes. Then, 10% TCA solution (2.5 ml) was added to the reaction mixture and centrifuged (3000 rpm) for 10 minutes. Finally, 2.5 ml of solution was mixed with 2.5 ml of double distilled water and 0.5 ml of 0.1% ferric chloride solution. The absorbance of the reaction mixture was recorded at 700 nm. A standard antioxidant catechin was used for comparison.

[3] = Hydroxyl radical scavenging assay (deoxyribose degradation method); conditions: mean ± SD (n = 3)
Experimental: The potential of the compounds to scavenge the hydroxyl free radical was assayed by the deoxyribose degradation method as described by Elizabeth and Rao [23]. Catechin was used as a reference antioxidant. Compound at different concentrations was mixed with a reaction mixture containing 2.8 mM 2-deoxy-2-ribose, 20 mM phosphate buffer (pH 7.4), 100 μM FeCl3, 100 μM EDTA, 1.0 mM H2O2, and 100 μM ascorbic acid and incubated at 37°C for 1 hour. This was then followed by the addition of 2.8% trichloro acetic acid (TCA) and 1% TBA. The reaction mixture was heated on a boiling water bath. After cooling, the absorbance was measured at 532 nm against an appropriate blank solution. The result was expressed as percent scavenging of hydroxyl radical in relation to the control. The IC50 values were calculated from the graph plotted as percent scavenging of hydroxyl free radical against concentration of each compound.

[4] = target: T1, AChE (Mus musculus, UniProt P21836); assay: biochemical; conditions: for Z-factor of acetylcholinesterase inhibitory activity: assay performance of the compound versus control
T1 construct: The AChE enzyme was prepared from mouse brain as described earlier; from tissue; host or cells: brain of Swiss albino mice
Experimental: The AChE enzyme was prepared from mouse brain as described earlier. Compound at different concentrations was mixed with AChE solution and incubated at 37°C for 15 min. The rates of hydrolysis by AChE was monitored by spectrophotometer at 405 nm immediately after adding an Ellman's reaction mixture containing 0.5 mM acetylthiocholine and 1 mM 5, 5′-dithio-bis (2-nitro benzoic acid) (DTNB) in a 50 mM phosphate buffer (pH 8.0) to the above reaction mixture. […] The percentage inhibition of AChE activity was calculated using the following formula:(1) Absorbance of control−Absorbance of sample/Absorbance of control×100.
IC50 value could be calculated from the inhibition curve obtained by plotting the percent inhibition values against test concentrations of each compound.
Quality of assay was assessed by using Z' factor as follows:(2) Z′=1−3σc++σc−/μc+−μc−, where σc+ and σc−are the standard deviations of the positive and negative control and μc+ and μc−are the means of the positive and negative control, respectively.

[5] = system: lipid peroxidation in mouse brain homogenate; assay: Lipid peroxidation inhibition assay (TBARS); type: biochemical; conditions: ferric ion plus ascorbic acid, mean ± SD (n = 3)
Experimental: . Catechin was used as a reference antioxidant. Mouse brain homogenate was employed as the source of lipid which was prepared by homogenizing the brain in the phosphate buffer followed by centrifugation at 10,000 g. Lipid peroxidation was induced by ferric ion plus ascorbic acid. The TBARS produced from the reaction of lipid peroxides with thiobarbituric acid was determined colorimetrically at 532 nm. Results were presented as percentage of lipid peroxidation inhibition in relation to the control. The IC50 values were determined from the graph plotted as percent inhibition of lipid peroxidation against concentration of each compound.

[6] = DPPH radical scavenging assay; conditions: mean ± SD (n = 3)
Experimental: The DPPH radical scavenging ability of the compounds was estimated using the method described by Choi et al.. Catechin was used as a standard antioxidant for comparison. Compound at different concentrations was added to a methanolic solution of DPPH (0.135 mM) and vortexed and left for 30 minutes in the dark. The absorbance of the reaction mixture was measured spectrophotometrically at 517 nm. DPPH free radical scavenging ability (%) was calculated by using the following formula:(4) Absorbance of control−Absorbance of sample/Absorbance of control×100.
The result was presented as IC50 value which is the concentration required to cause 50% scavenging. The IC50 value was calculated from the graph plotted as percent scavenging of DPPH free radical against concentration of each compound.

[7] = 100 μg/ml, 700 nm (as stated in Figure 4 legend), mean ± SD (n = 3)
[8] = mouse brain AChE, acetylthiocholine substrate, mean ± SD (n = 3), read-out: IC50, inhibition of acetylcholinesterase activity (converted)

T1 sequence (P21836 32-614): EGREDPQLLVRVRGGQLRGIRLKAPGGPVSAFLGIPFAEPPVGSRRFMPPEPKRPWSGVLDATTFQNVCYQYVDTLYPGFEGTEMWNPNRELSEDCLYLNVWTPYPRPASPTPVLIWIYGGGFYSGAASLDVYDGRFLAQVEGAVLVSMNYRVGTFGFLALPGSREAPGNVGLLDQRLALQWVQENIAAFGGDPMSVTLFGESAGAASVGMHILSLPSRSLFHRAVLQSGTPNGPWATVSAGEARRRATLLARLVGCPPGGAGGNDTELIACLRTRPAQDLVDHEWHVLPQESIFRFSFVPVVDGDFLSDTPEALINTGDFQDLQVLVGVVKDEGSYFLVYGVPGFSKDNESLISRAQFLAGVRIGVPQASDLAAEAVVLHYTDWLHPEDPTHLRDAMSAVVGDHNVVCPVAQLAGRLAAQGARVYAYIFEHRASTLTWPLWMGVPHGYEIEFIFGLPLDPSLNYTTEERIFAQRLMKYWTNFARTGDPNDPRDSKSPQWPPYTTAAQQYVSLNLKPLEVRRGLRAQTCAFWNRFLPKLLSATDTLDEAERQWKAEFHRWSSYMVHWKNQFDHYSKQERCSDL

Row | SMILES | Total antioxidant activity, absorbance [1] | Reducing power, absorbance ([2]; 80 μg/ml) | Reducing power, absorbance [2, 7] | IC50, hydroxyl radical scavenging [3] | IC50 [4] [µM] | Z-factor of acetylcholinesterase inhibitory activity [4] | IC50, inhibition of lipid peroxidation [5] | IC50, DPPH radical scavenging [6] | IC50 [4, 8] [µM] | IC50, inhibition of acetylcholinesterase activity ([4]; mouse brain AChE, acetylthiocholine substrate, mean ± SD (n = 3))
1 | COc1cc(C=O)cc(OC)c1O [Compound 2, syringaldehyde] | 0.336 ± 0.009 | 0.667 ± 0.035 | 0.667 ± 0.035 | 91.05 ± 3.75 µg/mL (≈ 500 µM) | 6960 | 0.80 | 141.60 ± 6.19 µg/mL | 40.64 ± 1.68 µg/mL (≈ 223 µM) |  | 
2 | COc1cc(O)cc(CCc2ccc(O)c(OC)c2)c1 [Compound 5, gigantol] | 0.848 ± 0.029 | 1.865 ± 0.030 | 1.865 ± 0.030 | 6.61 ± 0.76 µg/mL (≈ 24.1 µM) |  | 0.80 | 32.28 ± 1.10 µg/mL | 4.16 ± 0.37 µg/mL (≈ 15.2 µM) | 2000 | 
3 | CCCCC/C=C\C/C=C\CCCCCCCC(=O)OC [Compound 1, methyl linoleate] | no activity |  | no activity | no activity |  |  | no activity | no activity |  | no activity
4 | O.Oc1cc(O)c2c(c1)O[C@H](c1ccc(O)c(O)c1)[C@@H](O)C2 [Catechin, reference compound] | 1.739 ± 0.049 |  | 1.964 ± 0.019 | 9.32 ± 0.39 µg/mL |  |  | 14.10 ± 0.43 µg/mL | 4.35 ± 0.09 µg/mL |  | 
5 | COc1cc(C=O)ccc1O [Compound 3, vanillin] | 0.716 ± 0.020 | 0.746 ± 0.005 | 0.746 ± 0.005 | 21.72 ± 0.87 µg/mL (≈ 143 µM) | 556 | 0.91 | 57.02 ± 2.78 µg/mL | 19.64 ± 0.73 µg/mL (≈ 129 µM) |  | 
6 | COc1cc(CCCOC(=O)CCc2ccc(O)cc2)ccc1O [Compound 4, dihydroconiferyl dihydro-p-coumarate] | 0.735 ± 0.022 | 0.894 ± 0.014 | 0.894 ± 0.014 | 15.07 ± 1.20 µg/mL (≈ 45.6 µM) |  | 0.87 | 44.20 ± 1.01 µg/mL | 12.16 ± 0.55 µg/mL (≈ 36.8 µM) | 358 | 
